In article PMC10369073, “Production, identification, in silico analysis, and cytoprotection on H2O2-induced HUVECs of novel angiotensin-I-converting enzyme inhibitory peptides from Skipjack tuna roes” (Frontiers in Nutrition, 2023):

T1: ACE (Oryctolagus cuniculus, UniProt P12822)
T1 sequence (P12822 34-1310): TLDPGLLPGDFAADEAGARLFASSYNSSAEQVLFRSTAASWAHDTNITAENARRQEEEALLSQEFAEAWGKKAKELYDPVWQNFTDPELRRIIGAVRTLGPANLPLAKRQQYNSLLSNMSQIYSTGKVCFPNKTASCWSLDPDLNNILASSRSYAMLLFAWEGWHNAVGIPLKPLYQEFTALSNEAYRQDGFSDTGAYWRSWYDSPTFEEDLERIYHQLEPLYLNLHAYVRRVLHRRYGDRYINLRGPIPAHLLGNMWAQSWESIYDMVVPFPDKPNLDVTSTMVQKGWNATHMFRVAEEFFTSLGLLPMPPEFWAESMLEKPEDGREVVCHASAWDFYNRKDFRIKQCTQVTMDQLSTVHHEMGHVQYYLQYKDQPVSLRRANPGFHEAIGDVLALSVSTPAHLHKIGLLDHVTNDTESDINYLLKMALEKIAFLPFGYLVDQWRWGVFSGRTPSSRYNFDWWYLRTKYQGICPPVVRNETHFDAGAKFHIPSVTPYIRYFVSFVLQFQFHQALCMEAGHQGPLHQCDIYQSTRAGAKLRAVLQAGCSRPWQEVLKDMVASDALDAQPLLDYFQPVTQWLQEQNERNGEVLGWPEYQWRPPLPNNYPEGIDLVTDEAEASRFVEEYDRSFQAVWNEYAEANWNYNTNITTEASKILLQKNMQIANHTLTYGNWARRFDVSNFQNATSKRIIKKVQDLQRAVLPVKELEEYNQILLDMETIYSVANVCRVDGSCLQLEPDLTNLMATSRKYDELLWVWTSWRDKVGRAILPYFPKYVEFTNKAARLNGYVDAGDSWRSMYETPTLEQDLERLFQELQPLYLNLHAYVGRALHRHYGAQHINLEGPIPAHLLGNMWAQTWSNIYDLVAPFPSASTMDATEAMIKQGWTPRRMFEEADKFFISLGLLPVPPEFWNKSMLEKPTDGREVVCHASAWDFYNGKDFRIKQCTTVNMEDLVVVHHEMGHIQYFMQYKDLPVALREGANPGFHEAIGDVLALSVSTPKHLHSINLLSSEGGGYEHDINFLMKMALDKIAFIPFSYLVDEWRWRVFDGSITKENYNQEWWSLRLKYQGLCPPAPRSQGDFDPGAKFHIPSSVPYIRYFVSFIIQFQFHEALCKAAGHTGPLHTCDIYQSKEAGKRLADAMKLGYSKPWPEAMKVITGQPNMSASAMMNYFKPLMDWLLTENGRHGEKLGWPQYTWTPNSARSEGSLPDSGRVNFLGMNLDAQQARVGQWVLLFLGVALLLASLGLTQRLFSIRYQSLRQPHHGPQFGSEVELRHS

T2: angiotensin-I-converting enzyme (ACE) (UniProt P12822)
T2 sequence: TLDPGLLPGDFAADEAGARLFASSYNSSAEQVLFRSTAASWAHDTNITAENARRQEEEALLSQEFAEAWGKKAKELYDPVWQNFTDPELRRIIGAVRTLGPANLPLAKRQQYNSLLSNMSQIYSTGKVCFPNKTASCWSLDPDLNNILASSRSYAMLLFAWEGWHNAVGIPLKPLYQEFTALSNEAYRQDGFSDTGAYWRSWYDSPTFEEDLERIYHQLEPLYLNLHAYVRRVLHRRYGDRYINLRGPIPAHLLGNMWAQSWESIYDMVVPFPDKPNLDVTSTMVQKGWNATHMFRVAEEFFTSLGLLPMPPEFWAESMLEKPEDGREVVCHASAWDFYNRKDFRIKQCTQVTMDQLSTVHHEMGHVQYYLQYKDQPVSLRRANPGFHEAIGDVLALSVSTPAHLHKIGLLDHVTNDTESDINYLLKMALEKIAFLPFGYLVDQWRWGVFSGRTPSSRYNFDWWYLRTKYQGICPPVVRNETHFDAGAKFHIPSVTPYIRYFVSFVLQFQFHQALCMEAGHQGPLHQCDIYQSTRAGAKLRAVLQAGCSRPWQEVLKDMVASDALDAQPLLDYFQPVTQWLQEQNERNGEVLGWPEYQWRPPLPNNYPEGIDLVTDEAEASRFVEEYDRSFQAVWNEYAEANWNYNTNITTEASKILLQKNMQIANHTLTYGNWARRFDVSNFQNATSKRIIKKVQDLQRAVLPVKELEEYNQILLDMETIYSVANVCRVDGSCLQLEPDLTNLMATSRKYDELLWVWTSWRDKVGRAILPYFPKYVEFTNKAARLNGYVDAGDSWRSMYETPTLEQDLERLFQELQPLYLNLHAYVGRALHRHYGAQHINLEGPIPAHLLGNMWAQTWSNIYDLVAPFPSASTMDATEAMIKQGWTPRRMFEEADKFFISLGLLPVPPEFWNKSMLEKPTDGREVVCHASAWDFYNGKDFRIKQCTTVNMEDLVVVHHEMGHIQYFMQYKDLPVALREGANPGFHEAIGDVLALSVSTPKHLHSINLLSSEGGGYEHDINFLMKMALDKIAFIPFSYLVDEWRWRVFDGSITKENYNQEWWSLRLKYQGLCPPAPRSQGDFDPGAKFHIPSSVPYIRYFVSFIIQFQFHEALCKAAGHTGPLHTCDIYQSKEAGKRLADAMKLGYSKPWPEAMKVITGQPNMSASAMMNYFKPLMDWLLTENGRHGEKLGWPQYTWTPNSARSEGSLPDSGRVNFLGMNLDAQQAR

B1: TRP3 (WGESF; Trp-Gly-Glu-Ser-Phe) (peptide)
peptide: WGESF
B2: TRP6 (IKSW; Ile-Lys-Ser-Trp) (peptide)
peptide: IKSW
B3: TRP12 (WSPGF; Trp-Ser-Pro-Gly-Phe) (peptide)
peptide: WSPGF
B4: TRP9 (YSHM; Tyr-Ser-His-Met) (peptide)
peptide: YSHM

Biological target: T1, ACE
Assay: not given
Conditions: cited from earlier work
From the text: Moreover, the C- and N-terminal amino acids are believed to play a crucial function in the activity of ACEi peptides ([21]). Yu et al. ([56]) reported that C-terminus (such as Trp, Tyr, Pro, or Phe) and N-terminus (such as Pro, Phe, Trp, or Met) hydrophobic amino acid residues have positive effects on the ACEi ...

With FRKE [literature ACEi peptide] as the molecule, how does the “ACEi IC50” value read?
Its value is 6970 µg/mL.

Which “ACEi IC50” value does the source give for NFRPQ [literature ACEi peptide] here?
Its value is 4280 µg/mL.

For LAPPSTRH [literature ACEi peptide], which “ACEi IC50” value is on record?
Its value is 1310 µg/mL.

For YLRLHF [literature ACEi peptide], which “ACEi IC50” value is on record?
Its value is 1260 µg/mL.

With MVGSAPGVL [literature ACEi peptide] as the molecule, how does the “ACEi IC50” value read?
The value was 3090 µg/mL.

Same assay, conditions: read-out: ACEi IC50; cited from earlier work

For ACKEP [literature ACEi peptide], which IC50 is on record?
Its IC50 is 126 µM.

With KFYG [literature ACEi peptide] as the molecule, how does the IC50 read?
Its IC50 is 90.5 µM.

Biological target: T2, angiotensin-I-converting enzyme (ACE)
Assay: not given
Conditions: not given

Which ACEi activity (IC50): inhibition of ACE enzyme activity, substrate FAPGG, 37°C, product measured by HPLC at 228 nm does the source give for B1 here?
Its ACEi activity (IC50): inhibition of ACE enzyme activity, substrate FAPGG, 37°C, product measured by HPLC at 228 nm is 930 µg/mL.

For B2, which ACEi activity (IC50): inhibition of ACE enzyme activity, substrate FAPGG, 37°C, product measured by HPLC at 228 nm is on record?
Its ACEi activity (IC50): inhibition of ACE enzyme activity, substrate FAPGG, 37°C, product measured by HPLC at 228 nm is 790 µg/mL.

With B3 as the molecule, how does the ACEi activity (IC50): inhibition of ACE enzyme activity, substrate FAPGG, 37°C, product measured by HPLC at 228 nm read?
Its ACEi activity (IC50): inhibition of ACE enzyme activity, substrate FAPGG, 37°C, product measured by HPLC at 228 nm is 670 µg/mL.

With B4 as the molecule, how does the ACEi activity (IC50): inhibition of ACE enzyme activity, substrate FAPGG, 37°C, product measured by HPLC at 228 nm read?
The ACEi activity (IC50): inhibition of ACE enzyme activity, substrate FAPGG, 37°C, product measured by HPLC at 228 nm was 490 µg/mL.

Tested on: HUVECs
Assay: ET-1 secretion in HUVECs (assay kit)
Type: cell-based, human
Conditions: Cap 1.0 μM; control 55.37 ± 2.53 pg./mL
Protocol: (§1) HUVECs were cultured in DMEM supplemented with 100 µg/mL streptomycin, 10% FBS (v/v), and 100 U/mL penicillin at 37°C in a humidified 5% CO2 atmosphere for 24 h.
(§2) After treating with ACEi peptides (TRP3, TRP6, TRP9, or TRP12, respectively) for 24 h, NO and ET-1 contents were separately determined by employing human NO and ET-1 assay kit as per manufactures’ protocol ([18]).

For `C[C@H](CS)C(=O)N1CCC[C@H]1C(=O)O` [Cap, captopril, reference compound], which “ET-1 content in HUVECs” value is on record?
The value was 27.32 ± 1.28 pg/mL.

Same assay, conditions: NE 0.5 μM; control 55.37 ± 2.53 pg./mL

For `NC[C@H](O)c1ccc(O)c(O)c1` [NE, norepinephrine, reference compound], which “ET-1 content in HUVECs” value is on record?
Its value is 73.57 ± 3.09 pg/mL.

Biological target: T1, ACE
Assay: not given
Conditions: cited from earlier work
Remark: another data set of the same source
From the text: Peptide size and amino acid sequence are two key factors affecting the ACEi ability of BPs ([17], [21]). Peptide size decides the affinity between BPs and ACE because big polypeptides cannot be accommodated in and access the narrow channel of ACE ([21]). For example, VPP and IPP can easily access and bind the Zn^2+ of ACE channel, but ALPMHIR has low binding scores with ACE because it uncomfortably accesses the narrow channel ([19]). In the experiment, TRP3, TRP6, TRP9, and TRP10 are tetrapeptides or pentapeptides, and small size increases their access to the active channel of ACE, and this ha ...

With SHGEY [literature ACEi peptide] as the molecule, how does the “affinity with ACE (docking)” value read?
Its value is -8.7 kcal/mol.

Which “affinity with ACE (docking)” value does the source give for YEGDP [literature ACEi peptide] here?
Its value is -8.8 kcal/mol.

For SPYGF [literature ACEi peptide], which “affinity with ACE (docking)” value is on record?
The value was -9.7 kcal/mol.

With SWISS [literature ACEi peptide] as the molecule, how does the “affinity with ACE (docking)” value read?
Its value is -8.6 kcal/mol.

Which “affinity with ACE (docking)” value does the source give for LVLL [literature ACEi peptide] here?
Its value is -8.6 kcal/mol.

Which “affinity with ACE (docking)” value does the source give for LSFR [literature ACEi peptide] here?
The value was -8.5 kcal/mol.

For IYSP [literature ACEi peptide], which “affinity with ACE (docking)” value is on record?
The value was -8.3 kcal/mol.

With YVVF [literature ACEi peptide] as the molecule, how does the “affinity with ACE (docking)” value read?
The value was -9.8 kcal/mol.

Tested on: HUVECs
Assay: NO production in HUVECs (assay kit)
Type: cell-based, human
Conditions: Cap treatment; control 33.68 ± 0.96 μM
Protocol: as §1, §2

For `C[C@H](CS)C(=O)N1CCC[C@H]1C(=O)O` [Cap, captopril, reference compound], which “NO level in HUVECs” value is on record?
Its value is 53.71 ± 2.313 µM.

Same assay, conditions: NE treatment (0.5 μM); control 33.68 ± 0.96 μM

For `NC[C@H](O)c1ccc(O)c(O)c1` [NE, norepinephrine, reference compound], which “NO level in HUVECs” value is on record?
Its value is 18.59 ± 0.82 µM.

Biological target: T2, angiotensin-I-converting enzyme (ACE)
Assay: not given
Conditions: not given
Remark: another data set of the same source

Which ACEi rate (percent inhibition of ACE activity) of the RP-HPLC isolated peptide at 1.5 mg/mL does the source give for B1 here?
The ACEi rate (percent inhibition of ACE activity) of the RP-HPLC isolated peptide at 1.5 mg/mL was 69.5%.

With B2 as the molecule, how does the ACEi rate (percent inhibition of ACE activity) of the RP-HPLC isolated peptide at 1.5 mg/mL read?
Its ACEi rate (percent inhibition of ACE activity) of the RP-HPLC isolated peptide at 1.5 mg/mL is 75.4%.

For B3, which ACEi rate (percent inhibition of ACE activity) of the RP-HPLC isolated peptide at 1.5 mg/mL is on record?
Its ACEi rate (percent inhibition of ACE activity) of the RP-HPLC isolated peptide at 1.5 mg/mL is 78.2%.

With B4 as the molecule, how does the ACEi rate (percent inhibition of ACE activity) of the RP-HPLC isolated peptide at 1.5 mg/mL read?
The ACEi rate (percent inhibition of ACE activity) of the RP-HPLC isolated peptide at 1.5 mg/mL was 83.5%.
